In patent US4760085A, “Use of D,L-and D-carazolol as anti-glaucoma agent” (Boehringer Mannheim GmbH, priority 1983, dated 1988):
Like-named read-outs stand apart in the source and are kept apart here.

How the values were obtained:
[1] = tested on: tachycardic effect of 1 mcg/kg i.v. Isoprenaline (β-blocking); assay: β-blocking activity: inhibition of isoprenaline-induced tachycardia in conscious rabbits; type: in vivo; settings: for ED50: Oryctolagus cuniculus, iv, read-out: β-blocking activity ID50 (inhibition dose 50% of the tachycardic effect of 1 mcg/kg i.v. Isoprenaline)
Protocol: D,L-Carazolol, D-carazolol and L-carazolol were tested in respect to a β-blocking and intraocular pressure-reducing activity. The β-blocking activity was measured by means of a tachycardic effect caused by 1 μg/kg i.v. isoprenaline (Dr. Bartsch et al in Drug Research 27 (I), 5, p. 1022 et seq (1977).

[2] = tested on: intraocular pressure in water loaded rabbits; assay: Intraocular pressure reduction in water loaded conscious rabbits; type: in vivo; settings: one drop of 0.05% solution; for Reduction of the intraocular pressure in water loaded rabbits after administration of 0.05% solution: conscious rabbits, water loading
Protocol: For measurement of an intraocular pressure-reducing effect the intraocular pressure in some test animals (rabbits) were increased by means of water loading (Method: Th. McDonalds et al in Arch. Ophtal. 82, p. 381, 1969). Thereafter the influence of one drop of a 0,05% solution of D,L-carazolol respectively the enantiomeres thereof were measured.

[3] = Side effects observed in the experiments (species not stated); type: in vivo
β-blocking action [4] = settings: humans and animals; cited from earlier work
[5] = tested on: internal pressure of the eye; assay: Experiments on lowering of the internal pressure of the eye (species not stated); type: in vivo
[6] = tested on: internal eye pressure in glaucoma patients; assay: Lowering of internal eye pressure in humans (glaucoma patients), eye drops; type: in vivo
Protocol: (§1) For this purpose, patients were treated once per day with D,L-carazolol eye drops.

glaucoma patients [7] = assay: Compatibility / side effects of eye drops in humans; type: in vivo
Protocol: as §1

β-blocking action [8] = settings: Circ. Res., 49, 326-336/1981; cited from earlier work
glaucoma patients [9] = settings: cited from earlier work
[10] = tested on: pressure of the eye in glaucoma patients; settings: glaucoma patients (Krieglstein 1978); cited from earlier work
[11] = 0.01% solution of D,L-carazolol
[12] = D-carazolol, concentration not given

## CC(C)NCC(O)COc1cccc2[nH]c3ccccc3c12 (racemic) [D,L-Carazolol, (D,L)-1-carbazolyl-(4)-oxy-3-isopropylaminopropan-2-ol]
[1]
  ED50: 3 µg/kg
[1]; isoprenaline tachycardia
  β-blocking activity (in words): good β-blocking activity
[2]
  Reduction of the intraocular pressure in water loaded rabbits after administration of 0.05% solution: 12%
[3]; [11]
  undesired side effects: without any undesired side effects being observed
β-blocking action [4]
  β-blocking action: outstanding β-blocking action
[5]; [11]
  lowering of the inner pressure of the eye: significant lowering of the inner pressure of the eye
[6]; glaucoma patients, D,L-carazolol eye drops once per day, 0.005 to 0.03%
  lowering of internal eye pressure: significantly lower the internal eye pressure in glaucoma patients
Glaucoma patients [7]; humans, 0.01% solution
  known side effects (anaesthetised feeling in the eye or head region, strong burning sensation): did not give rise to any of the known side effects
Glaucoma patients [7]; humans, eye drops
  compatibility: good compatibility

## CC(C)NC[C@@H](O)COc1cccc2[nH]c3ccccc3c12 [D-Carazolol, R(+)-1-carbazolyl-(4)-oxy-3-isopropylaminopropan-2-ol]
[1]
  ED50: 222 µg/kg
β-blocking action [8]
  β-blocking action: no such action was ascertained
[2]
  Reduction of the intraocular pressure in water loaded rabbits after administration of 0.05% solution: 21%
[2]; water loaded rabbits
  intraocular pressure-reducing activity (in words): most effective compound
[3]; [12]
  systemic side effects typical of β-blockers: without the occurrence of systemic side effects which are typical of β-blockers
[5]; [12]
  lowering of the internal pressure of the eye: significant lowering of the internal pressure of the eye
[6]; D-carazolol and salts thereof
  lowering of internal eye pressure: significant lowering of the internal eye pressure
Glaucoma patients [7]; D-carazolol and salts thereof
  side effects: in no case were side effects observed

## CC(C)NC[C@H](O)COc1cccc2[nH]c3ccccc3c12 [L-Carazolol]
[1]
  ED50: 1.6 µg/kg
[2]
  Reduction of the intraocular pressure in water loaded rabbits after administration of 0.05% solution: 5%

## CC(C)(C)NC[C@H](O)COc1nsnc1N1CCOCC1 [Timolol, S-(-)-1-(tert.-butylamino)-3-[(4-morpholino-1,2,5-thiadiazol-3-yl)-oxy]-propan-2-ol]
Glaucoma patients [9]; after administration of timolol (Vonwil et al. 1981)
  rare but very serious incidents as a result of the β-blockade: asthmatic attacks, heart rhythm disturbances and even some fatal cases
Glaucoma patients [9]; commercially available 0.5% solution, especially long-term therapy (Nielsen 1981)
  side effects in glaucoma therapy: significant lowering of the blood pressure and the development of dry eyes

## CC(C)NCC(O)COc1cccc2ccccc12 (stereo not shown) [propranolol]
[10]
  reduction of the pressure of the eye: can reduce the pressure of the eye in glaucoma patients
